Laboratory results taken from US20180263996A1, “ARYL SULTAM DERIVATIVES AS RORc MODULATORS” (Genentech, Inc., priority 2015, published 2018).

Biological target: T1, RORc (Homo sapiens, UniProt P51449)
T1 construct: host or cells: E. coli
T1 sequence (P51449 269-508 limits assumed): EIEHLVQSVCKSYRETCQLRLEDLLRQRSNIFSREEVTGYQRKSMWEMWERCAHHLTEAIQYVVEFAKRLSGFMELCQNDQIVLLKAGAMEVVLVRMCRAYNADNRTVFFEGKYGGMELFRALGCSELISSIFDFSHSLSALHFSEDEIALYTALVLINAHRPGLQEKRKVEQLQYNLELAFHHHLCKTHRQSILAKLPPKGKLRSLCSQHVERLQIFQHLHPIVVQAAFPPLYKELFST
Test: In Vitro RORc Ligand Binding Assay
Details: IC50 values for RORc
Description: This assay was used to determine a compound's potency in inhibiting activity of RORc by determining, Kiapp, IC50, or percent inhibition values.
On day of the assay, 100 uL of 0.05% CHAPS (in deionized H2O) was added to all wells of the GFB Unifilter plate and allowed soak for 1 h. A wash buffer of 50 mM HEPES (pH 7.4), 150 mM NaCl, and 5 mM MgCl2 was prepared to wash the filter plate. To prepare an assay buffer, BSA was added to the wash buffer to reach 0.01% and DTT was added to reach 1 mM.
The 20× compound stocks were diluted in DMSO with Assay Buffer 4-fold to reach 5× the final test concentration in 25% DMSO (10 uL compound+30 uL Assay Buffer). Solutions were mixed by aspiration several times with a pipette set on 50 uL volume.
For two point screening, 10 mM stock compound solutions were diluted in DMSO to obtain 200 uM (20× the high test concentration) and then diluted 10-fold further to reach 20 uM (20× the low test concentration). The 20× stocks were diluted 4-fold with Assay Buffer (10 uL compound+30 uL Assay Buffer) to reach 5× the test concentrations (50 uM and 5 uM) and 10 uL were added to two assay plates for the duplicate wells. With each concentration tested on 2 plates, each set of 80 compounds used 4 assay plates (1 uM and 10 uM, with n=2).
For 25-hydroxycholesterol in 25% DMSO/75% Assay Buffer; 10 uL per well was used for NSB samples. Wells for Total Binding and No Receptor sample determination contained 10 uL of 25% DMSO/75% Assay Buffer per well.
Add 20 uL to all wells to reach 6 nM final concentration in the assay.
Stock receptor solution was diluted in assay buffer to obtain 1.5 ug/mL in Assay Buffer. 20 uL was added to all wells. For No Receptor samples, 20 uL Assay Buffer was substituted for receptor solution.
Assay plates were 96-well polypropylene V-bottom plates. […] 10 uL of 25% DMSO/75% Assay Buffer was added to Total Binding or No Receptor wells. 10 uL of 5 uM 25-hydroxycholesterol in 25% DMSO/75% Assay Buffer was added to NSB wells. […] 20 uL of 1.5 ug/mL RORc receptor was added to wells (or 40 uL Assay Buffer to No R wells). Following addition to the wells, the plates were incubated 3 h at 25° C.
Using a Packard Filtermate Harvester, the filter plate were washed 4 times following transfer of the incubated samples. Plates were dry-filtered completely (2 h at 50° C. or overnight at room temperature). 50 uL Microscint 0 was added to all wells and read on Topcount protocol Inverted.
Final concentrations were as follows: 50 mM HEPES buffer (pH 7.4); 150 mM NaCl; 1 mM DTT; 5 mM MgCl2; 0.01% BSA; 5% DMSO; 0.6 ug/mL RORc receptor; 6 nM 25-[^3H]hydroxycholesterol. For NSB wells, 1 uM 25-hydroxycholesterol was also present.

Compound | IC50
Cc1nnc(C(=O)NC(C)c2cc(F)c(CN3[C@@H](C)CC[C@H](c4ccccc4)S3(=O)=O)cc2F)o1 (stereo in doubt) [Compound 73, N-[1-[2,5-difluoro-4-[[(3S,6R)-3-methyl-1,1-dioxo-6-phenyl-thiazinan-2-yl]methyl]phenyl]ethyl]-5-methyl-1,3,4-oxadiazole-2-carboxamide] | 9.3 nM
CO[C@H]1C[C@@H](NC(=O)C2(c3ccc(CN4[C@@H](C)CC[C@H](c5ccccc5)S4(=O)=O)c(F)c3)CCOCC2)C1 [Compound 32, 4-[3-fluoro-4-[[(3S,6R)-3-methyl-1,1-dioxo-6-phenyl-thiazinan-2-yl]methyl]phenyl]-N-(3-methoxycyclobutyl)tetrahydropyran-4-carboxamide] | 53.5 nM
CC(NCc1cnoc1)c1cc(F)c(CN2[C@@H](C)CC[C@H](c3ccccc3)S2(=O)=O)cc1F (stereo partly drawn) [Compound 50, 1-[2,5-difluoro-4-[[(3S,6R)-3-methyl-1,1-dioxo-6-phenyl-thiazinan-2-yl]methyl]phenyl]-N-(isoxazol-4-ylmethyl)ethanamine] | 22 nM
CNC(=O)COC1(c2cc(F)c(CN3[C@@H](C)CC[C@H](c4ccccc4)S3(=O)=O)cc2F)CC2(COC2)C1 [Compound 13, 2-[[6-[2,5-difluoro-4-[[(3S,6R)-3-methyl-1,1-dioxo-6-phenyl-thiazinan-2-yl]methyl]phenyl]-2-oxaspiro[3.3]heptan-6-yl]oxy]-N-methyl-acetamide] | 2.1 nM
CN/C(=C\C#N)NC(C)c1cc(F)c(CN2[C@@H](C)CC[C@H](c3ccccc3)S2(=O)=O)cc1F (stereo partly drawn) [Compound 45, 3-[1-[2,5-difluoro-4-[[(3S,6R)-3-methyl-1,1-dioxo-6-phenyl-thiazinan-2-yl]methyl]phenyl]ethylamino]-3-(methylamino)prop-2-enenitrile; formic acid] | 695 nM
CC(NCc1cocn1)c1cc(F)c(CN2[C@@H](C)CC[C@H](c3ccccc3)S2(=O)=O)cc1F (stereo partly drawn) [Compound 54, 1-[2,5-difluoro-4-[[(3S,6R)-3-methyl-1,1-dioxo-6-phenyl-thiazinan-2-yl]methyl]phenyl]-N-(oxazol-4-ylmethyl)ethanamine] | 255 nM
CC(NC(=O)c1ccnn1C)c1cc(F)c(CN2[C@@H](C)CC[C@H](c3ccccc3)S2(=O)=O)cc1F (stereo in doubt) [Compound 69, N-[1-[2,5-difluoro-4-[[(3S,6R)-3-methyl-1,1-dioxo-6-phenyl-thiazinan-2-yl]methyl]phenyl]ethyl]-2-methyl-pyrazole-3-carboxamide] | 74.5 nM
C[C@H]1CC[C@H](c2ccccc2)S(=O)(=O)N1Cc1cc(F)c(C2=CC(=O)C2)cc1F [Compound 15, 3-[2,5-difluoro-4-[[(3S,6R)-3-methyl-1,1-dioxo-6-phenyl-thiazinan-2-yl]methyl]phenyl]cyclobut-2-en-1-one] | 6.5 nM
CC(NC(=O)c1cncs1)c1cc(F)c(CN2[C@@H](C)CC[C@H](c3ccccc3)S2(=O)=O)cc1F (stereo in doubt) [Compound 72, N-[1-[2,5-difluoro-4-[[(3S,6R)-3-methyl-1,1-dioxo-6-phenyl-thiazinan-2-yl]methyl]phenyl]ethyl]thiazole-5-carboxamide] | 6.3 nM
C[C@H]1CC[C@H](c2ccccc2)S(=O)(=O)N1Cc1cc(F)c([C@@H](OC2COC2)C(N)=O)cc1F [Compound 8, (2R)-2-[2,5-difluoro-4-[[(3S,6R)-3-methyl-1,1-dioxo-6-phenyl-thiazinan-2-yl]methyl]phenyl]-2-(oxetan-3-yloxy)acetamide] | 31 nM

The remaining molecules from weak to strong by IC50, led by results:

IC50 | Compound
231 nM | Cc1ncoc1C(=O)NC(C)c1cc(F)c(CN2[C@@H](C)CC[C@H](c3ccccc3)S2(=O)=O)cc1F (stereo in doubt) [Compound 64, N-[1-[2,5-difluoro-4-[[(3S,6R)-3-methyl-1,1-dioxo-6-phenyl-thiazinan-2-yl]methyl]phenyl]ethyl]-4-methyl-oxazole-5-carboxamide]
199 nM | C[C@H]1CC[C@H](c2ccccc2)S(=O)(=O)N1Cc1cc(F)c([C@]2(C(N)=O)C[C@@](C)(O)C2)cc1F [Compound 49, 1-[2,5-difluoro-4-[[(3S,6R)-3-methyl-1,1-dioxo-6-phenyl-thiazinan-2-yl]methyl]phenyl]-3-hydroxy-3-methyl-cyclobutanecarboxamide]
82.7 nM | C[C@H]1CC[C@H](c2ccccc2)S(=O)(=O)N1Cc1cc(F)c([C@@H](CCC#N)C(N)=O)cc1F [Compound 17, (2R)-4-cyano-2-[2,5-difluoro-4-[[(3S,6R)-3-methyl-1,1-dioxo-6-phenyl-thiazinan-2-yl]methyl]phenyl]butanamide]
76.1 nM | CC(NC(=O)c1cnco1)c1cc(F)c(CN2[C@@H](C)CC[C@H](c3ccccc3)S2(=O)=O)cc1F (stereo in doubt) [Compound 75, N-[1-[2,5-difluoro-4-[[(3S,6R)-3-methyl-1,1-dioxo-6-phenyl-thiazinan-2-yl]methyl]phenyl]ethyl]oxazole-5-carboxamide]
47.6 nM | C[C@H]1CC[C@H](c2ccccc2)S(=O)(=O)N1Cc1cc(F)c(C2(C(=O)N[C@H]3C[C@H](O)C3)CCOCC2)cc1F [Compound 37, 4-[2,5-difluoro-4-[[(3S,6R)-3-methyl-1,1-dioxo-6-phenyl-thiazinan-2-yl]methyl]phenyl]-N-(3-hydroxycyclobutyl) tetrahydropyran-4-carboxamide]
35.4 nM | C[C@H]1CC[C@H](c2ccccc2)S(=O)(=O)N1Cc1cc(F)c([C@@](C)(CO)C(N)=O)cc1F [Compound 10, (2S)-2-[2,5-difluoro-4-[[(3S,6R)-3-methyl-1,1-dioxo-6-phenyl-thiazinan-2-yl]methyl]phenyl]-3-hydroxy-2-methyl-propanamide]
30.1 nM | C[C@H]1CC[C@H](c2ccccc2)S(=O)(=O)N1Cc1cc(F)c([C@@H](OCC2CC2)C(N)=O)cc1F [Compound 18, (2R)-2-(cyclopropylmethoxy)-2-[2,5-difluoro-4-[[(3S,6R)-3-methyl-1,1-dioxo-6-phenyl-thiazinan-2-yl]methyl]phenyl]acetamide]
18.7 nM | C[C@H]1CC[C@H](c2ccccc2)S(=O)(=O)N1Cc1cc(F)c([C@](C)(CO)C(N)=O)cc1F [Compound 11, (2R)-2-[2,5-difluoro-4-[[(3S,6R)-3-methyl-1,1-dioxo-6-phenyl-thiazinan-2-yl]methyl]phenyl]-3-hydroxy-2-methyl-propanamide]
18.5 nM | C[C@H]1CC[C@H](c2ccccc2)S(=O)(=O)N1Cc1cc(F)c(C2(C(N)=O)CC(CC#N)C2)cc1F (stereo partly drawn) [Compound 44, 3-(cyanomethyl)-1-[2,5-difluoro-4-[[(3S,6R)-3-methyl-1,1-dioxo-6-phenyl-thiazinan-2-yl]methyl]phenyl]cyclobutane-carboxamide]
14 nM | Cc1n[nH]cc1C(=O)NC(C)c1cc(F)c(CN2[C@@H](C)CC[C@H](c3ccccc3)S2(=O)=O)cc1F (stereo in doubt) [Compound 53, N-[1-[2,5-difluoro-4-[[(3S,6R)-3-methyl-1,1-dioxo-6-phenyl-thiazinan-2-yl]methyl]phenyl]ethyl]-3-methyl-1H-pyrazole-4-carboxamide]
4.2 nM | C[C@H]1CC[C@H](c2ccccc2)S(=O)(=O)N1Cc1cc(F)c(C(C)(C)NCC(N)=O)cc1F [Compound 20, 2-[[1-[2,5-difluoro-4-[[(3S,6R)-3-methyl-1,1-dioxo-6-phenyl-thiazinan-2-yl]methyl]phenyl]-1-methyl-ethyl]amino]acetamide]
1.5 nM | C[C@H]1CC[C@H](c2ccccc2)S(=O)(=O)N1Cc1cc(F)c(C2(NCC(N)=O)CC(F)(F)C2)cc1F [Compound 21, 2-[[1-[2,5-difluoro-4-[[(3S,6R)-3-methyl-1,1-dioxo-6-phenyl-thiazinan-2-yl]methyl]phenyl]-3,3-difluoro-cyclobutyl]amino]acetamide]
